Like-named read-outs stand apart in the source and are kept apart here.
How the values were obtained:
[1] = target: T1, FL-SMARCA2 (full-length human SMARCA2 isoform 1) (Homo sapiens, UniProt P51531); experiment: SMARCA2 ATPase activity assay (ADP-Glo, chicken mononucleosome substrate); type: biochemical; conditions: ATP 250 uM
T1 construct: FLAG tag (YKDDDDK) (C); made in house; host or cells: Sf21 insect cells (baculovirus, pFastBacI)

FL-SMARCA4 = FL-SMARCA4 (Homo sapiens, UniProt P51532); experiment: SMARCA4 ATPase activity assay (ADP-Glo, chicken mononucleosome substrate)
Sequence of FL-SMARCA4 (P51532 whole entry): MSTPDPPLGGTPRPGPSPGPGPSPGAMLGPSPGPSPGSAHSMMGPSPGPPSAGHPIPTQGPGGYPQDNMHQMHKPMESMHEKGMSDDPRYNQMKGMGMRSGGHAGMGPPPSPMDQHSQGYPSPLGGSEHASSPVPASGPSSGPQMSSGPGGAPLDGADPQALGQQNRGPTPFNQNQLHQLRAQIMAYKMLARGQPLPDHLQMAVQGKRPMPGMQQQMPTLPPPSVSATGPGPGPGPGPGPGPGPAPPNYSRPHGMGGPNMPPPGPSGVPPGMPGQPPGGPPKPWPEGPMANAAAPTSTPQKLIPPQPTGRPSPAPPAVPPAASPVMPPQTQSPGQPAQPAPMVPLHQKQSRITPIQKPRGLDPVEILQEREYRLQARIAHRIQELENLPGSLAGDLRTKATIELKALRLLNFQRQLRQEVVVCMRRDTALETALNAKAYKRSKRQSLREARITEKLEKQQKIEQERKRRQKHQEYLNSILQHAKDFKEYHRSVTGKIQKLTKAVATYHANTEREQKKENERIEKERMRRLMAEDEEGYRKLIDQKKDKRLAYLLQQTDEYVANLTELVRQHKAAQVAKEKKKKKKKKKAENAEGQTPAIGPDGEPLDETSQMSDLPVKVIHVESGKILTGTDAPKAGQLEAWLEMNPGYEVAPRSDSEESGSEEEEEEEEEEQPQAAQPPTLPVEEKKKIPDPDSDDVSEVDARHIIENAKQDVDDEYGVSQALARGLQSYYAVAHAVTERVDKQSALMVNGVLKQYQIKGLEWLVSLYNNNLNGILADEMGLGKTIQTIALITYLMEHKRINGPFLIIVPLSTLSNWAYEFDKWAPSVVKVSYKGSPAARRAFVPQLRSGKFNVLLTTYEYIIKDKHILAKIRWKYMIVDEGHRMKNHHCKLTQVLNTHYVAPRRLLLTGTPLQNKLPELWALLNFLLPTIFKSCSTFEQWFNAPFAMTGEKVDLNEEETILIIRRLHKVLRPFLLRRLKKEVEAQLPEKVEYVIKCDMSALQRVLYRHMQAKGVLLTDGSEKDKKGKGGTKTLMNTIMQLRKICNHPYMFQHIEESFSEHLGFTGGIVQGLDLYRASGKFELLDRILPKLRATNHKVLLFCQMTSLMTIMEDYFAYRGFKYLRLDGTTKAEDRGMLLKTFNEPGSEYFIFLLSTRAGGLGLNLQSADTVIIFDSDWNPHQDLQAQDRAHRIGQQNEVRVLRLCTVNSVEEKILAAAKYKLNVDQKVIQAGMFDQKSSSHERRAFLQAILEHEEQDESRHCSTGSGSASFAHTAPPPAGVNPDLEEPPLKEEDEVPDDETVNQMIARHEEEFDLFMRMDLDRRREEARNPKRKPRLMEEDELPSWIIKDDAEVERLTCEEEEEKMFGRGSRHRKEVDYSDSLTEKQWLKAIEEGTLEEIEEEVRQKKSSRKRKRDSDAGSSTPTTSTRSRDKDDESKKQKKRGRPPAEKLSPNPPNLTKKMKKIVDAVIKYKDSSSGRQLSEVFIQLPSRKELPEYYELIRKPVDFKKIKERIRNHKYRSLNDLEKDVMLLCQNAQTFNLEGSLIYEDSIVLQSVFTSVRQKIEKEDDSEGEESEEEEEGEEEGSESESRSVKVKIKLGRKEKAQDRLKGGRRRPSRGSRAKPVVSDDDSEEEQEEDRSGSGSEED

[2] = Table 3.1, ATPase assay, enzyme 5 nM, chicken mononucleosome 10 nM, 30 min preincubation
[3] = FL-SMARCA4 IC50, Table 3.2, ATPase assay, enzyme 5 nM, ATP 250 uM, chicken mononucleosome 10 nM, 30 min preincubation
[4] = Table 3d.1, ATPase assay, enzyme 5 nM, chicken mononucleosome 10 nM, 30 min preincubation, read-out: FL-SMARCA2 IC>50
[5] = Table 3c.1, ATPase assay, enzyme 5 nM, chicken mononucleosome 10 nM, 30 min preincubation
[6] = FL-SMARCA4 IC>50, Table 3c.2, ATPase assay, enzyme 5 nM, ATP 250 uM, chicken mononucleosome 10 nM, 30 min preincubation
[7] = Table 3a.1, SMARCA2 5 nM, mononucleosome 10 nM
[8] = FL-SMARCA4 IC50, Table 3a.2, SMARCA4 5 nM, ATP 250 uM, mononucleosome 10 nM

T1 sequence (P51531 with tags, fused parts or gaps): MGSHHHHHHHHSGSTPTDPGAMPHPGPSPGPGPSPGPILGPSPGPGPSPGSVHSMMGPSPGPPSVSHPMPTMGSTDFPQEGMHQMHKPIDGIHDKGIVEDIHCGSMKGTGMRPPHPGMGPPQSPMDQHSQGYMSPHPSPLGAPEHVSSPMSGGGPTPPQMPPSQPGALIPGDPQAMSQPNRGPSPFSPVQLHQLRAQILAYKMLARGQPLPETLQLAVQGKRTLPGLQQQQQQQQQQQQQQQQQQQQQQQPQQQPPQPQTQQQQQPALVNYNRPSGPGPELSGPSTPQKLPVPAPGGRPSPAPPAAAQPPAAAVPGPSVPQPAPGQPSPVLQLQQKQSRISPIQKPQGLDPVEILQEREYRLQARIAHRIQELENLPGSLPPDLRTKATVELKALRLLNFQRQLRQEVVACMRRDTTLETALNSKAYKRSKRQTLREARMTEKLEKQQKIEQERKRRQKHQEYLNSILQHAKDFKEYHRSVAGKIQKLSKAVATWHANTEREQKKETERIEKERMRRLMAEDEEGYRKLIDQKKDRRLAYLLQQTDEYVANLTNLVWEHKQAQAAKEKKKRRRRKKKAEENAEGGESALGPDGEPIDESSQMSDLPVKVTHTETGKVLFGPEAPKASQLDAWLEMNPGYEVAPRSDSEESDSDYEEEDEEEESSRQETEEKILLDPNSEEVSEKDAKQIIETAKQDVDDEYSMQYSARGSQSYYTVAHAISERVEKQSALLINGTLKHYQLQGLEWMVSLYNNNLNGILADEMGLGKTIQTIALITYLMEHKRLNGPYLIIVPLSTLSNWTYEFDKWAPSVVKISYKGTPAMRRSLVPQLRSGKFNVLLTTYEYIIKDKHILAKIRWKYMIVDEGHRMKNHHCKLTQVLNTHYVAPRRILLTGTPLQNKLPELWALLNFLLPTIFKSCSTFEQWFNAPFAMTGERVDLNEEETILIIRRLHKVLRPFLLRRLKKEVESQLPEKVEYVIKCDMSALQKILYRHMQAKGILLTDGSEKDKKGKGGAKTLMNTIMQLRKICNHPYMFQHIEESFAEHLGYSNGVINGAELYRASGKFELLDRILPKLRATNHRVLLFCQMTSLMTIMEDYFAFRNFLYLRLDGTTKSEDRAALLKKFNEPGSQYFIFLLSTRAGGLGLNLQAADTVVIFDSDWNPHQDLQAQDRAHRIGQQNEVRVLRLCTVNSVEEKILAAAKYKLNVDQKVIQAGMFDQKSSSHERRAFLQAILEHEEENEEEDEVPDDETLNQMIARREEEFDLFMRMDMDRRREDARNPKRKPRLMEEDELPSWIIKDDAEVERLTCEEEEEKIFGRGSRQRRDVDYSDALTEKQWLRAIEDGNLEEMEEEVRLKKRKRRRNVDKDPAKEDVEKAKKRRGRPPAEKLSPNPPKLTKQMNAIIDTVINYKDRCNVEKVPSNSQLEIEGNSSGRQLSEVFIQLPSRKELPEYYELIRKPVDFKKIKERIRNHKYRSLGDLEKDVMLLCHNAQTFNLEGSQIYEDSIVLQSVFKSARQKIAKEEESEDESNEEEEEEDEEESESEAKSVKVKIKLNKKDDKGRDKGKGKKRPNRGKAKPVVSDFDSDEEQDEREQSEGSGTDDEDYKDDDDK

CCn1cc(NC(=O)c2cn(C(F)(F)F)c(Cl)n2)ccc1=O [Compound 124]
IC50 [1, 2]: > 50 µM | IC50 (FL-SMARCA4; [3]): > 50 µM

O=C(Nc1cc(F)c(=O)n(CC(F)F)c1)c1cc(Cl)c(C#CCO)s1 [Compound 52d]
IC50 [1, 4]: 34 µM | IC50 (FL-SMARCA4; FL-SMARCA4 IC50): > 50 µM

NC(=O)c1ccc(C(=O)Nc2cc(F)c(=O)n(CCF)c2)s1 [Compound 303]
IC50 [1, 2]: > 50 µM | IC50 (FL-SMARCA4; [3]): > 50 µM

O=C(Nc1cc(NCCc2cccnc2)c(=O)n(CCF)c1)c1cc(Cl)c(Cl)s1 [Compound 257]
IC50 [1, 2]: 19.1 µM | IC50 (FL-SMARCA4; [3]): 23.7 µM

O=C(Nc1cc(F)c(=O)n(CC(F)F)c1)[C@@H]1CCCN1 [Compound 15c]
IC50 [1, 5]: > 50 µM | IC50 (FL-SMARCA4; [6]): > 50 µM

N#Cc1cc(C(=O)Nc2ccc(=O)n(CCF)c2)sc1Cl [Compound 187]
IC50 [1, 2]: 0.158 µM | IC50 (FL-SMARCA4; [3]): 0.616 µM

CCn1cc(NC(=O)c2cn(C)c(Cl)n2)ccc1=O [Compound 108]
IC50 [1, 2]: > 50 µM | IC50 (FL-SMARCA4; [3]): > 50 µM

CCc1cc(NC(=O)c2cc(Cl)c(Cl)s2)cn(C)c1=O [Compound 185]
IC50 [1, 2]: > 50 µM | IC50 (FL-SMARCA4; [3]): > 50 µM

Cc1cc(=O)[nH]cc1NC(=O)c1ccc(C(F)(F)F)nc1C [Compound 32d]
IC50 [1, 4]: > 50 µM | IC50 (FL-SMARCA4; FL-SMARCA4 IC50): > 50 µM

O=C(Nc1cc(F)c(=O)n(CC(F)F)c1)c1cc(C#Cc2ccnnc2)c(Cl)s1 [Compound 133c]
IC50 [1, 5]: 0.0139 µM | IC50 (FL-SMARCA4; [6]): 0.0607 µM

CCn1cc(NC(=O)c2cc(C#N)c(Cl)s2)cc(Cl)c1=O [Compound 172]
IC50 [1, 2]: 0.238 µM | IC50 (FL-SMARCA4; [3]): 1.07 µM

Cn1ccnc1-c1cc(NC(=O)c2sc(C(F)(F)F)cc2Cl)cn(CC(F)F)c1=O [Compound 51c]
IC50 [1, 5]: > 50 µM | IC50 (FL-SMARCA4; [6]): > 50 µM

CNCCn1cc(NC(=O)c2cc(F)c(Cl)s2)cc(F)c1=O [Compound 52c]
IC50 [1, 5]: > 50 µM | IC50 (FL-SMARCA4; [6]): > 50 µM

O=C(Nc1cc(F)c(=O)n(CCF)c1)c1cnc(OC(F)F)s1 [Compound 269]
IC50 [1, 2]: 5.19 µM | IC50 (FL-SMARCA4; [3]): 24.9 µM

CCn1cc(NC(=O)c2coc(Br)n2)ccc1=O [Compound 35]
IC50 [1, 2]: > 50 µM | IC50 (FL-SMARCA4; [3]): > 50 µM

Cn1c(C(=O)Nc2cc(F)c(=O)n(CCF)c2)cnc1Cl [Compound 205]
IC50 [1, 2]: 3.49 µM | IC50 (FL-SMARCA4; [3]): 22.6 µM

CCn1cc(NC(=O)c2nc3cc(F)c(Cl)cc3s2)ccc1=O [Compound 46a]
IC50 [1, 7]: 42.7 µM | IC50 (FL-SMARCA4; [8]): 41.1 µM

CC(C)Nc1ncc(C(=O)Nc2cc(F)c(=O)n(CCF)c2)s1 [Compound 225]
IC50 [1, 2]: > 50 µM | IC50 (FL-SMARCA4; [3]): > 50 µM

Cc1cc(=O)n(C)cc1NC(=O)[C@@H]1CNC[C@H]1C(F)(F)F [Compound 8d]
IC50 [1, 4]: > 50 µM | IC50 (FL-SMARCA4; FL-SMARCA4 IC50): > 50 µM

O=C(Nc1cc(F)c(=O)n(CCF)c1)c1csc(NC2CCCC2)n1 [Compound 201]
IC50 [1, 2]: > 50 µM | IC50 (FL-SMARCA4; [3]): > 50 µM

O=C(Nc1cc(F)c(=O)n(CC(F)F)c1)c1nnc(Cl)o1 [Compound 1c]
IC50 [1, 5]: 0.402 µM | IC50 (FL-SMARCA4; [6]): > 50 µM

CNCCCn1cc(NC(=O)c2cc(F)c(Cl)s2)cc(F)c1=O [Compound 53c]
IC50 [1, 5]: > 50 µM | IC50 (FL-SMARCA4; [6]): > 50 µM

COc1cccc(-c2nc(C(=O)Nc3cn(C)c(=O)cc3C)cs2)c1OC [Compound 5d]
IC50 [1, 4]: > 50 µM | IC50 (FL-SMARCA4; FL-SMARCA4 IC50): > 50 µM

O=C(Nc1ccc(=O)n(CCF)c1)c1cc(Cl)c(Cl)[nH]1 [Compound 157]
IC50 [1, 2]: 1.5 µM | IC50 (FL-SMARCA4; [3]): 11.1 µM

CCn1cc(NC(=O)c2cc(-c3cn(C)cn3)c(Cl)s2)ccc1=O [Compound 280]
IC50 [1, 2]: > 50 µM | IC50 (FL-SMARCA4; [3]): > 50 µM

O=C(Nc1ccc(=O)n(CCO)c1)c1cc(Cl)c(Cl)s1 [Compound 83]
IC50 [1, 2]: 20.8 µM | IC50 (FL-SMARCA4; [3]): > 50 µM

O=C(Nc1cc(F)c(=O)n(CCF)c1)c1cc(Cl)c(Cl)[nH]1 [Compound 159]
IC50 [1, 2]: 0.194 µM | IC50 (FL-SMARCA4; [3]): 0.759 µM

COc1ccc(Cn2c(C(=O)Nc3ccc(=O)n(CCF)c3)cc(Cl)c2C#N)cc1 [Compound 200]
IC50 [1, 2]: 48.3 µM | IC50 (FL-SMARCA4; [3]): 45.3 µM

Cn1cc(NC(=O)c2cnc(-c3ccco3)s2)cc(Cl)c1=O [Compound 12]
IC50 [1, 2]: > 50 µM | IC50 (FL-SMARCA4; [3]): > 50 µM

CCn1cc(NC(=O)c2nc3cc(Cl)c(F)cc3[nH]2)ccc1=O [Compound 32a]
IC50 [1, 7]: > 50 µM | IC50 (FL-SMARCA4; [8]): > 50 µM

Cn1nc(Cl)cc1C(=O)Nc1cc(F)c(=O)n(CCF)c1 [Compound 233]
IC50 [1, 2]: 7.63 µM | IC50 (FL-SMARCA4; [3]): 36.4 µM

CCn1nc(NC(=O)c2cnc(Cl)s2)ccc1=O [Compound 20d]
IC50 [1, 4]: 7.37 µM | IC50 (FL-SMARCA4; FL-SMARCA4 IC50): 28.9 µM

Cn1cnc(-c2ccc(C(=O)Nc3cc(F)c(=O)n(CCF)c3)s2)c1 [Compound 311]
IC50 [1, 2]: > 50 µM | IC50 (FL-SMARCA4; [3]): > 50 µM

CCn1cc(NC(=O)c2cc(C#CCN(C)C)c(Cl)s2)ccc1=O [Compound 286]
IC50 [1, 2]: 9.49 µM | IC50 (FL-SMARCA4; [3]): 16.7 µM

CCn1nc(C(=O)Nc2ccc(=O)n(CC)c2)cc1C [Compound 32]
IC50 [1, 2]: > 50 µM | IC50 (FL-SMARCA4; [3]): > 50 µM

— patent US20220356174A1, “PYRIDIN-2-ONE COMPOUNDS USEFUL AS SMARCA2 ANTAGONISTS” (Epizyme, Inc., priority 2018, published 2022)
